Assay results: paper PMC6980506, “Comparative pharmacokinetics and pharmacodynamics of the advanced Retinol-Binding Protein 4 antagonist in dog and cynomolgus monkey” (PLoS ONE, 2020)
Where two headings read alike, the source gives them in different places.

Experiments:
[1] = Single dose pharmacokinetic study in beagle dog; assay type: in vivo; settings: male, beagle, plasma; for concentration at 12 h / concentration at 24 h / concentration at 36 h / concentration at 48 h / concentration at 0.25 h / concentration at 0.5 h / concentration at 1 h / concentration at 2 h / concentration at 4 h / concentration at 8 h / concentration at 10 h: male beagle dog; for half-life: read-out: T1/2, apparent terminal half-life (converted)
Method: Pharmacokinetic studies were conducted in male beagle dogs and male cynomolgus monkeys at SRI International, Menlo Park, CA. General procedures for animal care and housing were in accordance with the National Research Council (NRC) Guide for the Care and Use of Laboratory Animals (1996) and the Animal Welfare Standards incorporated in 9 CFR Part 3, 1991 and complied with guidelines set forth by the ARVO Animal Statement for the Use of Animals in Ophthalmic and Vision Research. During the course of the PK experiments, cynomolgus monkeys were individually housed in stainless steel primary enclosures in an AAALAC-accredited facility. Animals were fed a commercial monkey chow, and supplemental food was provided (fresh fruits, vegetables, seeds, and nuts). Reverse osmosis-purified drinking water was available at all times. Cynomolgus monkeys were maintained on a 12:12 hour light:dark cycle at the 64–84°F temperature and 30–70% humidity. Monkeys had access to enrichment opportunities (grooming devices, foraging devices, activity panels and mirrors) and were provided auditory stimuli and human interaction enrichment throughout the study. Blood samples were collected by venipuncture of a peripheral vein. Animals were acclimated to the squeeze back mechanism in their home cage by repeated, short periods of restraint during general husbandry procedures for at least 2 weeks prior to dosing. Animal were not removed from their cages for collection, and no anesthesia/analgesic agents were used for blood collection. […] For PK experiments, beagle dogs were individually housed in enclosed run (≥ 4 ft x 6 ft). Dogs were exposed to their daily ration of food, Harlan Teklad 2025C Certified Global 25% Protein Dog Diet. Water was provided from the public water supply (municipal tap water) ad libitum. Dogs were maintained on a 12:12 hour light:dark cycle at the 72–73°F temperature and 40–71% humidity. Every effort was made to minimize, if not eliminate, pain and suffering in all animals in this study. No restraining devices were used in blood collecting procedures. Dogs were gentle hand-held to restrain by trained technicians with the dogs foreleg extended for sample collection of blood from cephalic vein. Animals were awake during blood sample collection with no anesthesia/analgesic agents used, and positive reinforcement by the technician was provided following collection. […] All dogs were released back to the colony after the study was completed. Male beagle dogs and male cynomolgus monkey received a single i.v. dose of a test compound at 0.5 mg kg^−1 (dog) and 1 mg kg^−1 (monkey) or a single p.o. dose of a test compound of at 2 mg kg^−1 (dog) and 5 mg kg^−1 (monkey). The number of animals that was used in PK experiments is 3 per study group. Intravenous administration vehicle was 3% DMA/45% PEG300/12% ethanol/40% sterile water; p.o. vehicle was 2% Tween 80 in 0.9% saline. […] Blood samples were processed to plasma. Following protein extraction with acetonitrile, compound concentrations in plasma were measured by LC-MS/MS. The plasma drug level data were analyzed using WinNonlin software package; Model 201 (for i.v. bolus administration);was used for the analysis of i.v. data, and Model 200 (for extravascular administration) was used for the analysis of the p.o. data. Aliquots of pre-dose plasma samples, as well as aliquots of plasma PK samples, were used for the analysis of the plasmabiomarker, RBP4.

[2] = tested on: standard screening panel of fifty-five GPCRs, enzymes, ion channels, and transporters; parameters: method as in PMID 26181715; settings: cited from earlier work
[3] = parameters: method as in PMID 26181715; settings: human liver microsomes; cited from earlier work
[4] = dog, iv, 0.5 mg/kg, iv 0.5 mg/kg, read-out: Plasma level, Mean
[5] = dog, iv, 0.5 mg/kg, iv 0.5 mg/kg, read-out: Plasma level, Individual animals
[6] = dog, po, 2 mg/kg, po 2 mg/kg, read-out: Plasma level, Individual animals
[7] = dog, po, 2 mg/kg, po 2 mg/kg, read-out: Plasma level, Mean
[8] = iv, Dog, 0.5 mg kg^−1 i.v., mean ± SD, n=3
[9] = po, Dog, 2.0 mg kg^−1 p.o., mean ± SD, n=3

concentration at 12 h [1, 4]: 107 ng/mL
concentration at 24 h [1, 5]: 169 ng/mL
concentration at 24 h [1, 4]: 175 ng/mL
concentration at 36 h [1, 5]: 33.3 ng/mL
concentration at 36 h [1, 4]: 41 ng/mL
concentration at 48 h [1, 5]: 92.8 ng/mL
concentration at 48 h [1, 4]: 95.9 ng/mL
bioavailability ([1]; dog, oral, 2 mg kg^−1, Dog, 2.0 mg kg^−1 p.o. vs 0.5 mg kg^−1 i.v., read-out: %F, bioavailability): ~84%
concentration at 0.25 h [1, 6]: 7100 ng/mL
concentration at 0.25 h [1, 7]: 7090 ng/mL
concentration at 0.5 h [1, 6]: 6340 ng/mL
concentration at 0.5 h [1, 7]: 6720 ng/mL
concentration at 1 h [1, 6]: 6630 ng/mL
concentration at 1 h [1, 7]: 5940 ng/mL
concentration at 2 h [1, 6]: 3600 ng/mL
concentration at 2 h [1, 7]: 4120 ng/mL
concentration at 4 h [1, 6]: 1790 ng/mL
concentration at 4 h [1, 7]: 2140 ng/mL
concentration at 8 h [1, 6]: 855 ng/mL
concentration at 8 h [1, 7]: 904 ng/mL
concentration at 10 h [1, 6]: 407 ng/mL
concentration at 10 h [1, 7]: 559 ng/mL
concentration at 12 h [1, 6]: 453 ng/mL
concentration at 12 h [1, 7]: 532 ng/mL
concentration at 24 h [1, 6]: 330 ng/mL
concentration at 24 h [1, 7]: 383 ng/mL
concentration at 36 h [1, 6]: 82.4 ng/mL
concentration at 36 h [1, 7]: 94.2 ng/mL
concentration at 48 h [1, 7]: 126 ng/mL
AUC(0-inf) [1, 8]: 10700 ± 500 ng·h/mL
AUC(0-t) [1, 8]: 10300 ± 500 ng·h/mL
clearance ([1]; iv, Dog, 0.5 mg kg^−1 i.v., mean ± SD, n=3, read-out: CL, total body clearance (converted)): 0.783 mL/min/kg
Cmax ([1]; iv, Dog, 0.5 mg kg^−1 i.v., mean ± SD, n=3, read-out: Cmax, maximum observed concentration at first time point): 2700 ± 100 ng/mL
half-life [1, 8]: 2.6 ± 0.2 h
Vd ([1]; iv, Dog, 0.5 mg kg^−1 i.v., mean ± SD, n=3, read-out: Vss, volume of distribution at steady state): 0.622 ± 0.0034 L/kg
AUC(0-inf) [1, 9]: 35900 ± 4400 ng·h/mL
AUC(0-t) [1, 9]: 35400 ± 400 ng·h/mL
Tmax [1, 9]: 0.33 ± 0.14 h
Cmax ([1]; po, Dog, 2.0 mg kg^−1 p.o., mean ± SD, n=3, read-out: Cmax): 7500 ± 200 ng/mL
half-life [1, 9]: 2.9 ± 0.4 h
Compound: Cc1cc(C(=O)O)nc(N2C[C@H]3C[C@@H](c4ccccc4C(F)(F)F)C[C@H]3C2)n1 [BPN-14136]
off-target activity within standard screening panel [2]: no significant off-target activity
stability in liver microsomes, % remaining at 30 min [3]: > 90%
